The source made the active and inactive calls. The rule behind the calls is not given here.
Assays:
U-937 [1] = experiment: Cytotoxicity against U937 cells at 1.0 uM after 72 hrs; format: functional; settings: Homo sapiens, U-937, 72 h
B16-F10 [2] = experiment: Cytotoxicity against B16F10 cells at 1.0 uM after 72 hrs; format: functional; settings: Mus musculus, B16-F10, 72 h
HT-1080 [3] = experiment: Cytotoxicity against HT1080 cells at 10 uM after 72 hrs; format: functional; settings: Homo sapiens, HT-1080, 72 h
B16-F10 [4] = experiment: Cytotoxicity against B16F10 cells at 0.1 uM after 72 hrs; format: functional; settings: Mus musculus, B16-F10, 72 h
HT-1080 [5] = experiment: Cytotoxicity against HT1080 cells at 0.1 uM after 72 hrs; format: functional; settings: Homo sapiens, HT-1080, 72 h
B16-F10 [6] = experiment: Cytotoxicity against B16F10 cells at 10 uM after 72 hrs; format: functional; settings: Mus musculus, B16-F10, 72 h
U-937 [7] = experiment: Cytotoxicity against U937 cells at 10 uM after 72 hrs; format: functional; settings: Homo sapiens, U-937, 72 h
HT-1080 [8] = experiment: Cytotoxicity against HT1080 cells at 1.0 uM after 72 hrs; format: functional; settings: Homo sapiens, HT-1080, 72 h
B16-F10 [9] = experiment: Cytotoxicity against B16F10 cells at 0.1 uM after 48 hrs; format: functional; settings: Mus musculus, B16-F10, 48 h
U-937 [10] = experiment: Cytotoxicity against U937 cells at 10 uM after 48 hrs; format: functional; settings: Homo sapiens, U-937, 48 h
B16-F10 [11] = experiment: Cytotoxicity against B16F10 cells at 10 uM after 48 hrs; format: functional; settings: Mus musculus, B16-F10, 48 h
U-937 [12] = experiment: Induction of apoptosis in U937 cells by DNA fragmentation assay; format: functional, cell-based; settings: Homo sapiens
HT-1080 [13] = experiment: Cytotoxicity against HT1080 cells at 1.0 uM after 24 hrs; format: functional; settings: Homo sapiens, HT-1080, 24 h
B16-F10 [14] = experiment: Cytotoxicity against B16F10 cells at 1.0 uM after 48 hrs; format: functional; settings: Mus musculus, B16-F10, 48 h
U-937 [15] = experiment: Cytotoxicity against U937 cells at 10 uM after 24 hrs; format: functional; settings: Homo sapiens, U-937, 24 h
U-937 [16] = experiment: Cytotoxicity against U937 cells at 1.0 uM after 24 hrs; format: functional; settings: Homo sapiens, U-937, 24 h
HT-1080 [17] = experiment: Cytotoxicity against HT1080 cells at 10 uM after 48 hrs; format: functional; settings: Homo sapiens, HT-1080, 48 h
HT-1080 [18] = experiment: Cytotoxicity against HT1080 cells at 1.0 uM after 48 hrs; format: functional; settings: Homo sapiens, HT-1080, 48 h
HT-1080 [19] = experiment: Cytotoxicity against HT1080 cells at 10 uM after 24 hrs; format: functional; settings: Homo sapiens, HT-1080, 24 h
HT-1080 [20] = experiment: Cytotoxicity against HT1080 cells at 0.1 uM after 24 hrs; format: functional; settings: Homo sapiens, HT-1080, 24 h
U-937 [21] = experiment: Cytotoxicity against U937 cells at 1.0 uM after 48 hrs; format: functional; settings: Homo sapiens, U-937, 48 h
HT-1080 [22] = experiment: Cytotoxicity against HT1080 cells at 0.1 uM after 48 hrs; format: functional; settings: Homo sapiens, HT-1080, 48 h
B16-F10 [23] = experiment: Cytotoxicity against B16F10 cells at 10 uM after 24 hrs; format: functional; settings: Mus musculus, B16-F10, 24 h
B16-F10 [24] = experiment: Cytotoxicity against B16F10 cells at 1.0 uM after 24 hrs; format: functional; settings: Mus musculus, B16-F10, 24 h

SMILES	inhibition at 1 µM (U-937 [1]) [%]	inhibition at 1 µM (B16-F10 [2]) [%]	inhibition at 10 µM (HT-1080 [3]) [%]	inhibition at 0.1 µM (B16-F10 [4]) [%]	inhibition at 0.1 µM (HT-1080 [5]) [%]	inhibition at 10 µM (B16-F10 [6]) [%]	inhibition at 10 µM (U-937 [7]) [%]	inhibition at 1 µM (HT-1080 [8]) [%]	inhibition at 0.1 µM (B16-F10 [9]) [%]	inhibition at 10 µM (U-937 [10]) [%]	inhibition at 10 µM (B16-F10 [11]) [%]	inhibition at 1 µM (B16-F10 [14]) [%]	inhibition at 10 µM (U-937 [15]) [%]	inhibition at 1 µM (U-937 [16]) [%]	inhibition at 10 µM (HT-1080 [17]) [%]	inhibition at 1 µM (HT-1080 [18]) [%]	inhibition at 10 µM (HT-1080 [19]) [%]	inhibition at 1 µM (U-937 [21]) [%]	inhibition at 0.1 µM (HT-1080 [22]) [%]	inhibition at 10 µM (B16-F10 [23]) [%]	also measured
C[C@@H]1CC[C@@H](c2ccoc2)N2C[C@@]3(CC[C@@H]12)C[S+]([O-])[C@]1(CC[C@H]2[C@H](C)CC[C@@H](c4ccoc4)N2C1)C3 (some centres not stated)	4.7	3.2	-4.4	10.4	-6.1	10.8	6.3	-8.1													
C[C@@H]1CC[C@@H](c2ccoc2)N2C[C@@]3(CC[C@@H]12)CS[C@@]1(CC[C@H]2[C@H](C)CC[C@@H](c4ccoc4)N2[C@@H]1O)C3	-1	20.8	99.2	11.1	5.4	98.7	94.3	15.7	10.3	92.5	97.3	27.3	83.2	3.6	97.5	8.3	96.1	1.3	1.6	88.6	Activity (U-937 [12]): Active; inhibition at 1 µM (HT-1080 [13]): 14%; inhibition at 0.1 µM (HT-1080 [20]): 1.8%
C[C@@H]1CC[C@@H](c2ccoc2)N2[C@H]1CC[C@@]1(CS[C@@]3(CC[C@H]4[C@H](C)CC[C@@H](c5ccoc5)N4[C@@H]3O)C1)[C@H]2O	1.3	-6	75.3	-3.5	0.1	54.8	81.6	-0.9	-8	80	51.8	-15	54.7	5.3	75	0.5	19.3	2.3	9	16.6	
C[C@@H]1CC[C@@H](c2ccoc2)N2C[C@]3(CC[C@@H]12)C[S+]([O-])[C@]1(CC[C@H]2[C@H](C)CC[C@@H](c4ccoc4)N2C1)C3 (some centres not stated)	5.8	7.7	6.8	-3.7	-0.4	9.1	10	-1.8													
C[C@@H]1CC[C@@H](c2ccoc2)N2C[C@@]3(CC[C@@H]12)C[C@]1(CC[C@H]2[C@H](C)CC[C@@H](c4ccoc4)N2[C@@H]1O)CS3 [6'-HYDROXYTHIONUPHLUTINE B]	0.1	-1.6	-9.1	1.7	-9.8	-4.8	0.5	-7.3													
C[C@@H]1CC[C@@H](c2ccoc2)N2C[C@@]3(CC[C@@H]12)CS[C@]1(CC[C@H]2[C@H](C)CC[C@@H](c4ccoc4)N2[C@@H]1O)C3 [6-HYDROXYTHIONUPHLUTINE B]	85.3	69.3	98.7	0.9	1	99.1	94.1	63.5	0.3	91.3	98.2	65	80	74.6	98	53.3	95.9	89	8.6	91.5	inhibition at 1 µM (HT-1080 [13]): 42%; inhibition at 0.1 µM (HT-1080 [20]): 6.3%; inhibition at 1 µM (B16-F10 [24]): -22.9%
C[C@@H]1CC[C@H]2[C@H](C)CC[C@@H](c3ccoc3)N2C1 [(-)-7-EPI-DEOXYNUPHARIDINE]	6.4	-9.8	-10.1	-1.5		-7.9	8	-6.6													

From ChEMBL document CHEMBL1139671, “Nuphar alkaloids with immediately apoptosis-inducing activity from Nuphar pumilum and their structural requirements for the activity” (2006)
